According to article PMC8157280 (Pharmaceutics, 2021):
Counter-ions that a name gives are not always drawn.

Experiments:
RBE4 cells = test: [3H]-GHB uptake in RBE4 cells; type: cell-based, rat; conditions: for GHB uptake compared with GHB alone / GHB uptake in the presence of staurosporine: 10 mM GHB; for GHB uptake in the presence of staurosporine: 2 h pre-incubation with ketamine 40 µM or PMA 100 nM plus staurosporine
Protocol: The immortalized rat brain capillary endothelial cell line (RBE4) was kindly provided by Professor P. Couraud (Institut Cochin, Paris, France). RBE4 cells (passages 39–44) were used in all studies, as described previously. Briefly, cells were grown at 37 °C with 5% CO2 on Type-I collagen-coated flasks, and media was changed every 2–3 days. The culture medium was 1:1 α-minimum essentials medium/Hams F10 nutrient mixture supplemented with L-glutamine (2.0 mM), geneticin (300 μg/mL), human recombinant fibroblast growth factor (1 ng/mL), gentamicin (50 μg/mL), and 10% v/v fetal bovine serum (FBS). Cells were passaged using 0.25% trypsin/EDTA and seeded on individual 35 × 10 mm collagen-coated wells for uptake studies which were performed 7 days post-confluence (the time needed for formation of tight junctions).
In addition, the effect of various pre-incubation times with ketamine (0.5, 2, 4, 8 and 24 h) was also studied in these cells. […] After cell lysis, NaOH was neutralized with 0.5 mL 1.0 N HCl.

Sprague-Dawley rats [1] = test: GHB-induced respiratory depression, whole-body plethysmography; conditions: for Respiratory depression (in words): ketamine alone, or naloxone 2 mg/kg i.v. with or without SCH50911 10 mg/kg given 5 min after GHB-ketamine; for Breathing frequency (in words) / Minute volume (in words) / Tidal volume (in words): GHB 600 mg/kg i.v. alone or with ketamine 6 mg/kg + 1 mg/kg/min, treatments 5 min after GHB-ketamine, compared to GHB-ketamine
[2] = cited from earlier work
[3] = GHB toxicokinetics (plasma and urine, noncompartmental analysis); conditions: for Ketamine plasma concentration in the study: ketamine 6 mg/kg i.v. bolus + 1 mg/kg/min infusion, maintained up to 1 h
Sprague-Dawley rats [4] = test: Sedative effect (sleep time, righting reflex); conditions: GHB 400 mg/kg i.v. + ketamine 6 or 20 mg/kg i.v.; compared to GHB or ketamine alone
Sprague-Dawley rats [5] = test: Fatality after GHB with or without ketamine; conditions: GHB 400 mg/kg i.v. bolus + 208 mg/kg/h infusion and/or ketamine 6 mg/kg bolus + 1 mg/kg/min infusion; n = 8
[6] = parameters: method as in PMID 12667908; conditions: GHB 400 mg/kg i.v. alone; cited from earlier work
[7] = GHB blood-brain partitioning at steady state; conditions: GHB 400 mg/kg i.v. bolus + 208 mg/kg/h infusion alone; steady state 4 h
[8] = GHB 600 mg/kg i.v. bolus, ketamine 6 mg/kg i.v. bolus + 1 mg/kg/min infusion, L-lactate 66 mg/kg + 302.5 mg/kg/h, AR-C155858 1 mg/kg, SCH50911 10 mg/kg or naloxone 2 mg/kg i.v. 5 min after GHB-ketamine

SMILES: CNC1(c2ccccc2Cl)CCCCC1=O (racemic) [ketamine, (±) Ketamine Hydrochloride]
- GHB uptake compared with GHB alone (RBE4 cells; 15 s, 2 h pre-incubation with ketamine 5, 15 or 40 µM at 37 °C): significantly increased
- GHB uptake compared with GHB alone (RBE4 cells; 15 s, ketamine 5, 15, 40 µM without pre-incubation): no significant change in GHB uptake
- GHB uptake compared with GHB alone (RBE4 cells; 0.5, 2 and 4 h pre-incubation with 40 µM ketamine): significant increases in GHB uptake
- GHB uptake in the presence of staurosporine (RBE4 cells): no increase in GHB uptake
- GHB uptake compared with GHB alone (RBE4 cells; longer pre-incubation times (8 and 24 h) with 40 µM ketamine): no significant changes
- Respiratory depression (in words) (Sprague-Dawley rats [1]): did not result in any significant respiratory depression
- Ketamine plasma concentrations associated with fatalities [2]: 1.8 to 27.4 µg/mL
- Steady-state concentration of ketamine with GHB compared to ketamine alone ([3]; GHB 600 mg/kg i.v., ketamine 6 mg/kg bolus + 1 mg/kg/min for 60 min): no significant difference
- Ketamine plasma concentration in the study [3]: ~ 7 µg/mL
- Ketamine plasma concentration in the study ([3]; listed as Ketamine): 7 µg/mL
- Effect of co-administration on GHB sleep time (Sprague-Dawley rats [4]): significant increase in sleep time
- Fatality (Sprague-Dawley rats [5]): No death was observed

SMILES: Cc1n[nH]c(C)c1Cc1sc2c(c1C(=O)N1C[C@H](O)CO1)c(=O)n(C)c(=O)n2CC(C)C [AR-C155858, 6-[(3,5-Dimethyl-1H-pyrazol-4-yl)methyl]-5-[[(4S)-4-hydroxy-2-isoxazolidinyl]carbonyl]-3-methyl-1-(2-methylpropyl)thieno [2,3-d]pyrimidine-2,4(1H,3H)-dione]
- Breathing frequency (in words) (Sprague-Dawley rats [1]): significant and rapid improvement in breathing frequency
- Minute volume (in words) (Sprague-Dawley rats [1]): completely reversed the decline in minute volume

SMILES: O=C(O)CCCO [GHB, γ-hydroxybutyric acid]
- Breathing frequency (in words) (Sprague-Dawley rats [1]): decrease in breathing frequency
- Minute volume (in words) (Sprague-Dawley rats [1]): remaining unchanged
- Tidal volume (in words) (Sprague-Dawley rats [1]): compensatory increase in tidal volume
- Frequency AUEC (Sprague-Dawley rats [1]; [8]): 5540 ± 1000 breaths
- Frequency Emax (Sprague-Dawley rats [1]; [8]): 31 ± 5 breaths/min
- Frequency Td (Sprague-Dawley rats [1]; [8]): 153 ± 12.5 min
- Cbrain (brain GHB concentration at RRR) [6]: 71.7 ± 9.89 µg/g
- Cplasma (plasma GHB concentration at RRR) [6]: 379 ± 86.2 µg/mL
- Cbrain GHB [7]: 0.21 ± 0.03 mg/g
- Fatality (Sprague-Dawley rats [5]): No death was observed

SMILES: C[C@H](O)C(=O)[O-].[Na+] [L-lactate, sodium L-lactate]
- Breathing frequency (in words) (Sprague-Dawley rats [1]): significant improvement in breathing frequency and minute volume
- Minute volume (in words) (Sprague-Dawley rats [1]): significant improvement in breathing frequency and minute volume
- Tidal volume (in words) (Sprague-Dawley rats [1]): no change in tidal volume

SMILES: C=CCN1CC[C@]23c4c5ccc(O)c4O[C@H]2C(=O)CC[C@@]3(O)[C@H]1C5 [Naloxone, naloxone hydrochloride dihydrate]
- Respiratory depression (in words) (Sprague-Dawley rats [1]): no effects

SMILES: CCCCCCCCCCCCCC(=O)O[C@@H]1[C@@H](C)[C@@]2(O)[C@@H](C=C(CO)C[C@]3(O)C(=O)C(C)=C[C@@H]23)[C@@H]2C(C)(C)[C@]12OC(C)=O [PMA, phorbol 12-myristate 13-acetate]
- GHB uptake compared with GHB alone (RBE4 cells; 2 h pre-incubation with PMA 100 nM): significant increase in GHB uptake
- GHB uptake in the presence of staurosporine (RBE4 cells): no increase in GHB uptake

SMILES: CC1(C)CO[C@@H](CC(=O)O)CN1 [SCH50911, (2S)-(+)-5,5-Dimethyl-2-morpholineacetic acid]
- Breathing frequency (in words) (Sprague-Dawley rats [1]): significant improvement in breathing frequency and minute volume
- Minute volume (in words) (Sprague-Dawley rats [1]): significant improvement in breathing frequency and minute volume
- Tidal volume (in words) (Sprague-Dawley rats [1]): compensatory increase in tidal volume was also absent

SMILES: CN[C@@H]1C[C@H]2O[C@@](C)([C@@H]1OC)n1c3ccccc3c3c4c(c5c6ccccc6n2c5c31)C(=O)NC4 [staurosporine]
- Effect on the increase in GHB uptake by PMA and ketamine (RBE4 cells; RBE4 cells, co-incubation during 2 h pre-incubation): significantly inhibited
